Drawing on PMC6348054 (Bioorganic & medicinal chemistry letters, 2018), this text covers Stimulation for 1 compound.

This experiment concerns 20S proteasome core particle (20S CP). Nature of the experiment: FRET peptide hydrolysis assay, percent stimulation over basal. In kind it is biochemical, Homo sapiens.

Regarding `CCCCC/C=C\C/C=C\CCCCCCCC(=O)O` [compound 15], the Stimulation was determined as 160%.
